For the experiment, the target named is T1, human TAS1R2-P21L (subunit alone) (Homo sapiens, UniProt Q8TE23, P21L).
T1 construct: expressed in transfected cells; host or cells: HEK293T-Gα16gust44
T1 sequence (Q8TE23 20-839 P21L): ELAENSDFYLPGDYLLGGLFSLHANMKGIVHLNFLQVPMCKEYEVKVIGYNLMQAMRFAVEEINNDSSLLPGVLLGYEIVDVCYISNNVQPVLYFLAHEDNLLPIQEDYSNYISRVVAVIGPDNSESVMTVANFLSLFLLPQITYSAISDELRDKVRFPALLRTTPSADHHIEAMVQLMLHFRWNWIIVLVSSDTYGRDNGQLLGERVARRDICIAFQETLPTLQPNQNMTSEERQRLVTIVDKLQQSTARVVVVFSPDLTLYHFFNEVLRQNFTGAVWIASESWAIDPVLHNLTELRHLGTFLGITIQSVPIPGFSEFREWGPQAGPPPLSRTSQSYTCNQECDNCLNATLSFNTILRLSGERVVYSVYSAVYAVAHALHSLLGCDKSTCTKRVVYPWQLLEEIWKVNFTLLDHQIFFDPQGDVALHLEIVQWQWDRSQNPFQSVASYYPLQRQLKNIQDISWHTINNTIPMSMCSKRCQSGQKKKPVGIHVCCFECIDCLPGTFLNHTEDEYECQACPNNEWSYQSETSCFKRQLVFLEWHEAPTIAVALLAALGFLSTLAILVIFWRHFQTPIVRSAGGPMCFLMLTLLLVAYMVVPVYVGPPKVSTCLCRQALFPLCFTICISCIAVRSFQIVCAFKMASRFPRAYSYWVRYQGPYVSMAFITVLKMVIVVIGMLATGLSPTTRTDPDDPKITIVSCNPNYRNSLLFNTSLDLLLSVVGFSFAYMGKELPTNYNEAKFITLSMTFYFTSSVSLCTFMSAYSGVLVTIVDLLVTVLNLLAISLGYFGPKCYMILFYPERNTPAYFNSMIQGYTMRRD
The experiment in a line: Calcium mobilisation assay, TAS1R2-P21L subunit alone. Format: cell-based. The source says:
The coding sequences for TAS1R2 and TAS1R3 were commercially synthesised, and the human codon was optimised for expression in human cells. The coding sequences of human TAS1R2 and TAS1R3 were subcloned and inserted into the mammalian expression vectors pcDNA6/myc-HisA and pcDNA4/myc-HisA (Invitrogen; Thermo Fisher Scientific; Illkirch, France) between the EcoRI and NotI restriction sites, generating the plasmids pcDNA6-TAS1R2 and pcDNA4-TAS1R3, respectively. To increase protein expression in mammalian cells, an upstream start codon was used, which was a sequence called MAX, corresponding to the QBI SP163 element also described in pcDNA4-HisMax (Invitrogen; Thermo Fisher Scientific; Illkirch, France). To measure the expression level of the receptor by immunohistochemistry, we used the FLAG sequence ([…]) in the C-terminal position, which encodes the FLAG tag epitope. […]
The HEK293T cells were kindly provided by Jay P. Slack (Givaudan Flavors Corporation; Cincinnati, OH, USA). […] The fluorescence intensity was measured for 90 s (excitation 488 nm, emission 510 nm) in an automated fluorometric FlexStation®3 Multi-Mode microplate reader (Molecular Devices; San Jose, CA, USA). […] The Ca^2+ changes were expressed as fractional changes in fluorescent light intensity: ΔF/F = (F − F0)/F0, where F was the fluorescent light intensity at each point, and F0 was the value of emitted fluorescent light prior to stimulus application. To calculate dose–response relationships, the changes in fluorescence upon stimulus application were averaged, mock-subtracted and baseline-corrected. […] The half-maximal effective concentrations (EC50 values) and maximal signal amplitudes were calculated using SigmaPlot software (version 15.0) (Systat Software; San Jose, CA, USA).
For in vitro calcium mobilisation assay performed on hTAS1R2-SNPs, hTAS1R3-SNPs and mTAS1R3-I60T, 6 to 7 concentrations were tested for each sweet compound, plus buffer alone. All concentration–receptor combinations were measured in duplicate, and each experiment was repeated at least 4 times (8 wells/concentration). […]

Molecules are shown by their SMILES.

As usually defined, the EC50 is the concentration giving half of the maximal effect.

For `C=C(C)[C@@H]1CC=C(/C=N/O)CC1` [Perillartine, perillartine], the EC50 is 149 ± 22.7 µM and the “R1 = Variant EC50/WT EC50” value came to 1.7. The “Max ΔF/F0” value (maximal signal amplitude) turned out to be 0.33 ± 0.02.

These data come from PMC11945486, “TAS1R2/TAS1R3 Single-Nucleotide Polymorphisms Affect Sweet Taste Receptor Activation by Sweeteners: The SWEET Project” (Nutrients, 2025).
